Activity calls are given as the source filed them. The calls are words filed in the database; no cut-off is given here.
Key:
Danio rerio [1] = organism: Danio rerio; assay: Inhibition of AMPK in zebrafish assessed as embryonic axis dorsalization at 20 uM treated at 3 hrs post-fertilization measured at 48 hrs; parameters: scale not given: the % may be the effect or the level left
Danio rerio [2] = organism: Danio rerio; assay: Inhibition of AMPK in zebrafish assessed as embryonic axis dorsalization at 40 uM treated at 3 hrs post-fertilization measured at 48 hrs; parameters: scale not given: the % may be the effect or the level left
Danio rerio [3] = organism: Danio rerio; assay: Toxicity in zebrafish assessed as survivability at 4 to 400 uM treated at 3 hrs post-fertilization measured at 48 hrs; type: organism-based; settings: in vivo
Danio rerio [4] = organism: Danio rerio; assay: Inhibition of AMPK in zebrafish assessed as embryonic axis dorsalization at 4 uM treated at 3 hrs post-fertilization measured at 48 hrs; parameters: scale not given: the % may be the effect or the level left
Danio rerio [5] = organism: Danio rerio; assay: Inhibition of AMPK in zebrafish assessed as embryonic axis dorsalization at 200 uM treated at 3 hrs post-fertilization measured at 48 hrs; parameters: scale not given: the % may be the effect or the level left
Danio rerio [6] = organism: Danio rerio; assay: Inhibition of AMPK in zebrafish assessed as embryonic axis dorsalization at 400 uM treated at 3 hrs post-fertilization measured at 48 hrs; parameters: scale not given: the % may be the effect or the level left
Danio rerio [7] = organism: Danio rerio; assay: Inhibition of AMPK in zebrafish assessed as embryonic axis dorsalization at 100 uM treated at 3 hrs post-fertilization measured at 48 hrs; parameters: scale not given: the % may be the effect or the level left
Hep 3B2 = assay: Inhibition of hepcidin mRNA expression in human Hep3B cells at 250 uM after 30 mins by qRT-PCR analysis; type: functional; settings: 0.5 h
[8] = target: AMP-activated protein kinase, AMPK (Homo sapiens) (UniProt P54646+O43741+P54619+Q9UGJ0+Q9Y478+Q13131+Q9UGI9); assay: Inhibition of AMPK-mediated hepcidin mRNA expression in BMP2-stimulated human Hep3B cells at 250 uM treated 30 mins before BMP2 challenge measured after 16 hrs by qRT-PCR analysis; type: cell-based; settings: Hep 3B2

C=C1C(=O)O[C@H](CCCCCCCC)[C@H]1C(=O)O
Activity (Danio rerio [1]): 0% | Activity (Danio rerio [2]): 0% | Activity (Danio rerio [3]): Toxic | Activity (Danio rerio [4]): 0% | Activity (Danio rerio [5]): 0% | Activity (Danio rerio [6]): 0% | Activity (Danio rerio [7]): 0%

Nc1ncnc2c1ncn2[C@@H]1O[C@H](CO)[C@@H](O)[C@@H]1O [VIDARABINE]
inhibition at 250 µM (Hep 3B2): 40% | inhibition [8]: inactive
